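In this assay, cells in 96-well plates receive the compound at five concentrations for 48 hours. Endpoints are linearly interpolated between the surrounding concentrations. At the GI50, growth is halved. TGI is the concentration that stops growth completely.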
How the values were obtained:
Assay in all cases: NCI tumour cell line growth inhibition, 48 h
[1] = test system: KM12 colon
[2] = test system: DU-145 prostate
[3] = test system: SK-MEL-5 melanoma
[4] = test system: SR leukemia
[5] = test system: U251 CNS
[6] = test system: LOX IMVI melanoma
[7] = test system: MCF7 breast
[8] = test system: OVCAR-8 ovarian
[9] = test system: SF-295 CNS
[10] = test system: M14 melanoma
[11] = test system: HCC-2998 colon
[12] = test system: TK-10 renal
[13] = test system: SNB-75 CNS
[14] = test system: SK-MEL-2 melanoma
[15] = test system: NCI/ADR-RES ovarian
[16] = test system: SF-539 CNS
[17] = test system: UO-31 renal
[18] = test system: RXF 393 renal
[19] = test system: HS 578T breast
[20] = test system: A549 NSCLC
[21] = test system: OVCAR-5 ovarian
[22] = test system: OVCAR-3 ovarian
[23] = test system: A498 renal
[24] = test system: NCI-H522 lung
[25] = test system: K-562 leukemia
[26] = test system: COLO 205 colon
[27] = test system: SF-268 CNS
[28] = test system: UACC-257 melanoma
[29] = test system: HCT-116 colon
[30] = test system: NCI-H23 lung
[31] = test system: HOP-62 NSCLC
[32] = test system: HL-60(TB) leukemia
[33] = test system: NCI-H460 lung
[34] = test system: T-47D breast
[35] = test system: ACHN renal
[36] = test system: CAKI-1 renal
[37] = test system: SK-MEL-28 melanoma
[38] = test system: NCI-H226 lung
[39] = test system: 786-0 renal
[40] = test system: SK-OV-3 ovarian
[41] = test system: CCRF-CEM leukemia
[42] = test system: SNB-19 CNS
[43] = test system: EKVX NSCLC
[44] = test system: OVCAR-4 ovarian
[45] = test system: IGROV1 ovarian
[46] = test system: BT-549 breast
[47] = test system: RPMI-8226 leukemia
[48] = test system: MALME-3M melanoma
[49] = test system: SN12C renal
[50] = test system: SW-620 colon
[51] = test system: PC-3 prostate
[52] = test system: UACC-62 melanoma
[53] = test system: MDA-MB-435
[54] = test system: HCT-15 colon
[55] = test system: HT29 colon
[56] = test system: MDA-MB-231 breast
[57] = test system: MOLT-4 leukemia
[58] = test system: HOP-92 NSCLC

CCn1c(-c2nonc2N)nc2cncc(C(=O)NCCNC)c21
GI50 [1]: > 25 µM | TGI [1]: > 25 µM | GI50 [2]: 22.8 µM | TGI [2]: > 25 µM | GI50 [3]: > 16 µM | TGI [3]: > 25 µM | GI50 [4]: 4.53 µM | TGI [4]: > 25 µM | GI50 [5]: > 25 µM | TGI [5]: > 25 µM | GI50 [6]: > 25 µM | TGI [6]: > 25 µM | GI50 [7]: 1.92 µM | TGI [7]: > 25 µM | GI50 [8]: 15.3 µM | TGI [8]: > 25 µM | GI50 [9]: > 25 µM | TGI [9]: > 25 µM | GI50 [10]: 17.2 µM | TGI [10]: > 25 µM | GI50 [11]: 4.77 µM | TGI [11]: > 25 µM | GI50 [12]: 0.612 µM | TGI [12]: 4.64 µM | GI50 [13]: 0.246 µM | TGI [13]: 6.61 µM | GI50 [14]: 5.27 µM | TGI [14]: > 25 µM | GI50 [15]: 18.9 µM | TGI [15]: > 25 µM | GI50 [16]: 3.04 µM | TGI [16]: > 25 µM | GI50 [17]: 0.684 µM | TGI [17]: 5.77 µM | GI50 [18]: 2.57 µM | TGI [18]: > 25 µM | GI50 [19]: 0.36 µM | TGI [19]: > 6.59 µM | GI50 [20]: 4.47 µM | TGI [20]: > 23.3 µM | GI50 [21]: 0.441 µM | TGI [21]: > 25 µM | GI50 [22]: > 23.9 µM | TGI [22]: > 25 µM | GI50 [23]: 0.834 µM | TGI [23]: > 19.8 µM | GI50 [24]: 13.1 µM | TGI [24]: > 25 µM | GI50 [25]: > 25 µM | TGI [25]: > 25 µM | GI50 [26]: 1.15 µM | TGI [26]: 8.51 µM | GI50 [27]: 7.78 µM | TGI [27]: > 25 µM | GI50 [28]: 3.04 µM | TGI [28]: > 25 µM | GI50 [29]: 2.78 µM | TGI [29]: > 25 µM | GI50 [30]: 9.32 µM | TGI [30]: > 25 µM | GI50 [31]: 3.11 µM | TGI [31]: > 25 µM | GI50 [32]: > 25 µM | TGI [32]: > 25 µM | GI50 [33]: 8.59 µM | TGI [33]: > 25 µM | GI50 [34]: 16.7 µM | TGI [34]: > 25 µM | GI50 [35]: 11.2 µM | TGI [35]: > 25 µM | GI50 [36]: 1.56 µM | TGI [36]: 14.4 µM | GI50 [37]: 12.9 µM | TGI [37]: > 25 µM | GI50 [38]: 0.454 µM | TGI [38]: > 25 µM | GI50 [39]: 12.1 µM | TGI [39]: > 25 µM | GI50 [40]: 17.3 µM | TGI [40]: > 25 µM | GI50 [41]: > 19.9 µM | TGI [41]: > 25 µM | GI50 [42]: > 25 µM | TGI [42]: > 25 µM | GI50 [43]: 0.903 µM | TGI [43]: > 25 µM | GI50 [44]: > 22.8 µM | TGI [44]: > 25 µM | GI50 [45]: 4.87 µM | TGI [45]: > 22.6 µM | GI50 [46]: 3.13 µM | TGI [46]: > 22.3 µM | GI50 [47]: > 25 µM | TGI [47]: > 25 µM | GI50 [48]: 5.7 µM | TGI [48]: > 25 µM | GI50 [49]: > 25 µM | TGI [49]: > 25 µM | GI50 [50]: 4.07 µM | TGI [50]: > 25 µM | GI50 [51]: > 25 µM | TGI [51]: > 25 µM | GI50 [52]: 13.6 µM | TGI [52]: > 25 µM | GI50 [53]: 2.64 µM | TGI [53]: > 25 µM | GI50 [54]: 5.98 µM | TGI [54]: > 25 µM | GI50 [55]: 0.817 µM | TGI [55]: > 25 µM | GI50 [56]: > 25 µM | TGI [56]: > 25 µM | GI50 [57]: > 25 µM | TGI [57]: > 25 µM

CS(=O)(=O)c1ccc(Oc2cc(F)cc(C#N)c2)c2c1[C@H](O)C(F)(F)C2
GI50 [1]: > 100 µM | TGI [1]: > 100 µM | GI50 [2]: > 100 µM | TGI [2]: > 100 µM | GI50 [3]: > 100 µM | TGI [3]: > 100 µM | GI50 [4]: > 100 µM | TGI [4]: > 100 µM | GI50 [5]: > 100 µM | TGI [5]: > 100 µM | GI50 [6]: > 100 µM | TGI [6]: > 100 µM | GI50 [7]: > 100 µM | TGI [7]: > 100 µM | GI50 [8]: > 100 µM | TGI [8]: > 100 µM | GI50 [9]: > 100 µM | TGI [9]: > 100 µM | GI50 [10]: > 100 µM | TGI [10]: > 100 µM | GI50 [11]: > 100 µM | TGI [11]: > 100 µM | GI50 [12]: > 100 µM | TGI [12]: > 100 µM | GI50 [13]: > 100 µM | TGI [13]: > 100 µM | GI50 [14]: > 100 µM | TGI [14]: > 100 µM | GI50 [15]: > 100 µM | TGI [15]: > 100 µM | GI50 [16]: > 100 µM | TGI [16]: > 100 µM | GI50 [17]: > 100 µM | TGI [17]: > 100 µM | GI50 [18]: > 100 µM | TGI [18]: > 100 µM | GI50 [19]: > 100 µM | TGI [19]: > 100 µM | GI50 [20]: > 100 µM | TGI [20]: > 100 µM | GI50 [21]: > 100 µM | TGI [21]: > 100 µM | GI50 [22]: > 100 µM | TGI [22]: > 100 µM | GI50 [23]: > 100 µM | TGI [23]: > 100 µM | GI50 [24]: > 100 µM | TGI [24]: > 100 µM | GI50 [25]: > 100 µM | TGI [25]: > 100 µM | GI50 [26]: > 100 µM | TGI [26]: > 100 µM | GI50 [27]: > 100 µM | TGI [27]: > 100 µM | GI50 [29]: > 100 µM | TGI [29]: > 100 µM | GI50 [30]: > 100 µM | TGI [30]: > 100 µM | GI50 [31]: > 100 µM | TGI [31]: > 100 µM | GI50 [32]: > 100 µM | TGI [32]: > 100 µM | GI50 [33]: > 100 µM | TGI [33]: > 100 µM | GI50 [34]: > 100 µM | TGI [34]: > 100 µM | GI50 [35]: > 100 µM | TGI [35]: > 100 µM | GI50 [36]: > 100 µM | TGI [36]: > 100 µM | GI50 [37]: > 100 µM | TGI [37]: > 100 µM | GI50 [38]: > 100 µM | TGI [38]: > 100 µM | GI50 [39]: > 100 µM | TGI [39]: > 100 µM | GI50 [40]: > 100 µM | TGI [40]: > 100 µM | GI50 [41]: 21.9 µM | TGI [41]: 47.5 µM | GI50 [42]: > 100 µM | TGI [42]: > 100 µM | GI50 [43]: > 100 µM | TGI [43]: > 100 µM | GI50 [44]: > 100 µM | TGI [44]: > 100 µM | GI50 [58]: > 100 µM | TGI [58]: > 100 µM | GI50 [45]: > 100 µM | TGI [45]: > 100 µM | GI50 [46]: > 100 µM | TGI [46]: > 100 µM | GI50 [47]: > 100 µM | TGI [47]: > 100 µM | GI50 [48]: > 100 µM | TGI [48]: > 100 µM | GI50 [49]: > 100 µM | TGI [49]: > 100 µM | GI50 [50]: > 100 µM | TGI [50]: > 100 µM | GI50 [51]: > 100 µM | TGI [51]: > 100 µM | GI50 [53]: > 100 µM | TGI [53]: > 100 µM | GI50 [54]: > 100 µM | TGI [54]: > 100 µM | GI50 [55]: > 100 µM | TGI [55]: > 100 µM | GI50 [56]: > 100 µM | TGI [56]: > 100 µM | GI50 [57]: > 100 µM | TGI [57]: > 100 µM
